# What was measured:
# Nocardia brasiliensis = assay: Antimicrobial activity against Nocardia brasiliensis HUJEG-1 by broth microdilution method; type: functional
# [1] = Drug level in human plasma at 400 mg/day after 8 hrs; type: ADME, cell-free; conditions: read-out: Drug uptake
# [2] = Cmax in Nocardia brasiliensis HUJEG-1 infected BALB/c mouse at 25 mg/kg, sc every 8 hrs by HPLC; type: ADME, organism-based; parameters: dose 25 mg/kg, route subcutaneous; conditions: in vivo
Compound,MIC (Nocardia brasiliensis) [mg/L],concentration at 8 h [1] [µg/mL],Cmax [2] [µg/mL]
COc1c(N2C[C@@H]3CCCN[C@@H]3C2)c(F)cc2c(=O)c(C(=O)O)cn(C3CC3)c12 [MOXIFLOXACIN],0.25,> 1,4.3
O=C(O)c1cn(C2CC2)c2cc(N3CCNCC3)c(F)cc2c1=O [CIPROFLOXACIN],,,2.25

# — ChEMBL document CHEMBL1629568 (Antimicrob Agents Chemother, 2009)
